Patent US20240041842A1, “PHARMACEUTICAL COMPOSITION FOR INHIBITING CANCER METASTASIS” (INDUSTRY-ACADEMIC COOPERATION FOUNDATION, YONSEI UNIVERSITY, priority 2021, published 2024)

Columns and labels:
Assay type in all cases: cell-based, human
[1] = system: LC3; experiment: Autophagic flux (LC3 Western blot, mRFP-GFP-LC3 lysosomal delivery assay); conditions: HBEC-KL cells; 50 uM chloroquine for 6 hours
[2] = system: total protein acetylation; experiment: Western blot of total protein acetylation; conditions: HBEC-KL; 50 uM chloroquine, 24 hours; same effect = reduced
Experimental: Cells were harvested, washed with PBS, and lysed on ice with RIPA buffer containing protease and phophatase inhibitor cocktail (GenDEPOT). After 15 minutes of incubation, the cell lysates were centrifuged at 15,000 rpm at 4° C. for 10 minutes. Protein concentration was measured by Bradford assay (Bio-rad, 500-0006). Equal amounts of total protein were placed on an SDS gel electrophoresis and transferred to a PVDF membrane (Bio-rad). The membrane was blocked with 5% skim milk for 1 hour at room temperature and incubated overnight at 4° C. with primary antibody in a buffer containing 0.1% Tween-20. Subsequently, the membrane was washed three times with Tween-PBS buffer and incubated for 1 hour at room temperature using a secondary antibody diluted in blocking buffer containing 0.1% Tween-20. Subsequently, the membrane was washed three times for 10 minutes each using Tween-TBS. Densitometry of Western blots was measured using ImageJ software.

[3] = system: SNAI1 gene; experiment: Real-time PCR of SNAI1 gene; conditions: HBEC-KL cell line; 50 uM chloroquine, 24 hours
Experimental: After synthesizing complementary DNA (cDNA) using the TOPscript·8 cDNA synthesis kit (Enzynomics, EZ0054), gRT-PCR was performed with TCPreal™ gRCR 2× PreMIX (SYBR Green with low ROX) (Enzynomics, RT501M). GAPDH and beta-actin were used for RNA normalization. qRT-PCR was performed with a StepOne Plus (Applied Biosystems) instrument.

[4] = system: KRAS-mutant pancreatic cancer cells; experiment: Matrigel invasion assay, pancreatic cancer cell lines; conditions: 100 uM chloroquine, 24 hours
Experimental: FIG. 12C illustrates changes in matrigel invasiveness after treating the pancreatic cancer cell line with 100 uM chloroquine (CQ) for 24 hours, and the bright-field micrographs of cells infiltrating through the matrigel coated transwell membrane (top) and quantification results (bottom) are shown.
For the 2D invasion assay, the inserts were pre-coated with 300 μg/ml Matrigel (Coming, 354234). After staining with […] dye (Bio-Rad, 1450013), 1×10^5 live cells per 8-um-pore cell-culture insert (Costar. 3422) were seeded in 0.5% ACL medium. 10% ACL medium was added to the outside of the insert. In the case of lung cancer and pancreatic cancer cell lines, after inoculation in 1% RPMI medium, 20% RPMI medium was added to the outside of the insert. Plates were incubated for 24 hours at 37° C. After incubation, the insert was fixed with 3.7% PFA, washed, stained with 0.4% crystal violet, and the upper membrane was washed and dried.

[5] = system: acetylated Snail; experiment: Immunoprecipitation-immunoblot of acetylated Snail; conditions: KRAS-mutant pancreatic cancer cells; 100 uM chloroquine, 24 hours
Experimental: Cell lysates (1 μg protein) were incubated overnight at 4° C. on anti-FLAG® M2 Affinity Gel (Sigma, A2220) or anti-acetyl-lysine antibody coated agarose (ImmuneChem Pharmaceuticals, ICP0388). The immunoprecipitate was then washed three times in IP buffer, and the immunoprecipitated complex was dissolved and separated by boiling in IP buffer for 5 minutes.
For SDS-PAGE electrophoresis, the immunoprecipitated complex was transferred to a nitrocellulose membrane and the membrane was blocked and then incubated for 1 hour at room temperature with Primary antibody and secondary antibody (VeriBlot for IP Detection Reagent (HRP) (Abcam, #ab131366), and anti-mouse IgG tor IP (HRP) (Abeam, #ab131368)).
After washing 3 times, the membrane was incubated with the secondary antibody.

[6] = system: Intracellular acetyl-CoA; experiment: Acetyl-CoA measurement; conditions: KRAS-mutant pancreatic cancer cells; 100 uM chloroquine, 24 hours
Experimental: Intracellular acetyl-CoA levels were calculated in the pmol range using the PicoProbe Acetyl-CoA Assay Kit (Biovision, K317). […] After correcting the background in all readings, the value of each sample was determined and normalized to the protein concentration of each sample.

[7] = system: Snail; experiment: Western blot of Snail protein; conditions: HBEC-KL cell line; chloroquine 12 to 48 hours

SMILES: CCN(CC)CCCC(C)Nc1ccnc2cc(Cl)ccc12 (stereo not shown) [CQ, chloroquine]
- LC3-II accumulation [1]: high levels
- overall protein acetylation [2]: the same effect
- SNAI1 mRNA expression level [3]: no change
- 2D Matrigel transwell invasion [4]: reduced
- acetylated Snail [5]: reduced
- acetyl-CoA [6]: reduced
- expression level of Snail protein [7]: reduced
